Measurements reported in US20240301319A1, “PERFUMING COMPOSITIONS” (FIRMNICH SA, priority 2017, published 2024).

Columns and labels:
[1] = Log P (n-octanol/water) of perfuming compounds (Tables 4 to 10)
[2] = Odor threshold and odor value of perfuming compounds (Tables 4 to 10); settings: for Odor Threshold (μg/l air): perfuming compounds having a green note
[3] = Volatility of perfuming compounds (Tables 4 to 10), with top/middle/bottom note type; format: physicochemical
Procedure, shortened: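 Note type follows from air volatility (μg/l): bottom 49–0.1, middle 99–50, top 70,000–100. Compounds are listed within watery, green, fruity, citrus, sweet, gourmand and woody families.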

[4] = Table 6, perfuming compounds having a fruity note
[5] = Table 8, perfuming compounds having a sweet note
[6] = Table 6, perfuming compounds having a fruity note, note type by volatility
[7] = Table 8, perfuming compounds having a sweet note, note type by volatility
[8] = n-octanol/water, perfuming compounds having a green note
[9] = note type (Top/Middle/Bottom) by volatility, perfuming compounds having a green note
[10] = perfuming compounds having a green note
[11] = Table 9, perfuming compounds having a gourmand note, note type by volatility

Row | Structure (SMILES) | Log P (n-octanol/water) [1, 4] | Log P (n-octanol/water) [1, 5] | Odor Threshold [2, 5] [μg/l air] | Odor Value [2, 5] | Volatility [3, 4] [μg/l air] | Type [3, 6] | Volatility [3, 5] [μg/l air] | Type [3, 7] | Log P (n-octanol/water) [1, 8] | Odor Threshold (μg/l air) [2] [μg/l air] | Type [3, 9] | Volatility (μg/l air) [3, 10] [μg/l air] | also measured
1 | CC(C)CC(=O)OCc1ccccc1 [BENZYL 3-METHYLBUTANOATE] | 3.45 | 3.45 | 7.31E−03 | 8.70E+03 | 63.56 | Middle | 63.56 | Middle |  |  |  |  | Odor Threshold [2, 4]: 7.31E−03 μg/l air; Odor Value [2, 4]: 8.70E+03
2 | CCCOC(C)OCCc1ccccc1 (centres unmarked) [1-PHENYL-2-(1-PROPOXYETHOXY)ETHANE] |  |  |  |  |  |  |  |  | 3.58 | 1.52E−03 | Middle | 59.63 | 
3 | CCCC(C)COC(=O)C(C)CCC (centres unmarked) [2-METHYLPENTYL 2-METHYLPENTANOATE] | 5.13 |  |  |  | 450.33 | TOP (perfuming compounds having a volatility ranging from 70,000 to 100 μg/l in air are referred to as “top notes”) |  |  | 5.13 | 2.41E−01 | Top | 450.33 | 
4 | COc1ccc(CCC(C)=O)cc1 [4-(4-METHOXYPHENYL)-2-BUTANONE] | 2.06 | 2.06 | 5.88E−06 | 9.49E+05 | 5.58 | Bottom | 5.58 | Bottom |  |  |  |  | Log P (n-octanol/water) ([1]; Table 9, gourmand note): 2.06; Odor Threshold [2, 4]: 5.88E−06 μg/l air; Odor Value [2, 4]: 9.49E+05; Odor Threshold ([2]; Table 9, gourmand note): 5.88E−06 μg/l air; Volatility ([3]; Table 9, gourmand note): 5.58 μg/l air; Type [3, 11]: Bottom
5 | COC(OC)C(C)c1ccccc1 (centres unmarked) [1,1-DIMETHOXY-2-PHENYLPROPANE] |  |  |  |  |  |  |  |  | 2.50 | 1.42E−02 | Top | 376.94 | 
6 | CCCC=C1OC(=O)c2ccccc21 [3-BUTYLIDENE-1-BENZO[C]FURANONE] |  | 3.12 | 8.65E−04 | 1.66E+04 |  |  | 14.37 | Bottom |  |  |  |  | Log P (n-octanol/water) ([1]; Table 9, gourmand note): 3.12; Odor Threshold ([2]; Table 9, gourmand note): 8.65E−04 μg/l air; Volatility ([3]; Table 9, gourmand note): 14.37 μg/l air; Type [3, 11]: Bottom
7 | C/C=C/C(=O)C1=C(C)C=CCC1(C)C | 3.33 |  |  |  |  |  |  |  |  |  |  |  | Log P (n-octanol/water) ([1]; Table 10, woody note): 3.33; Odor Threshold ([2]; Table 10, woody note): 3.00E−06 μg/l air; Type ([3]; Table 10, perfuming compounds having a woody note, note type by volatility): Middle; Volatility ([3]; Table 10, woody note): 91.38 μg/l air
